Assay results: US11813239B2, “Compositions and methods for improving cardiac structure and/or function” (Wisconsin Alumni Research Foundation, priority 2020, dated 2023)

Key:
[1] = system: postnatal (P7) mouse heart following myocardial infarction; test: Echocardiography after myocardial infarction in P7 juvenile mice; conditions: sham at P7 (SH, n = 6), dimethyl malonate 100 mg/kg daily for 2 weeks from birth, echo at day 21 (P7D21), mean ± SE
Procedure: (§1) Neonatal mice at postnatal day 1 (P1) or day 7 (P7) were used for myocardial infarction (MI) surgery. Neonatal mice were subjected to MI surgeries as previously described. Briefly, neonates were anesthetized by hypothermia on ice. Lateral thoracotomy at the fourth intercostal space was performed by blunt dissection of the intercostal muscles after skin incision. A C-1 tapered needle attached to a 6-0 prolene suture (Ethicon Inc., Bridgewater, N.J.) was passed through the mid-ventricle below the left anterior descending coronary artery (LAD) and tied off to induce MI. The prolene suture was used to suture the ribs together and seal the chest wall incisions, and the skin was closed using adhesive glue (3M). The mice then were warmed on a heating pad until recovery. Sham-operated mice underwent the same procedure including hypothermic anesthesia, but not LAD ligation.
(§2) Neonatal mice were weighed and injected daily with either saline, 100 mg/kg dimethyl succinate (Sigma), 100 mg/kg dimethyl malonate (Sigma), or 100 μg/kg Atpenin A5 (Enzo Life Sciences). Dimethyl succinate and dimethyl malonate were dissolved in saline. Stock solution of Atpenin A5 at 0.1 mg/ml was initially prepared by dissolving in DMSO (Sigma) and then further diluted with saline before injection. Saline was used as a vehicle control for all experiments.
(§3) Transthoracic echocardiography was performed by using a Visual Sonics 770 ultrasonograph with a 25-MHz transducer (Visual Sonics, Toronto) as described previously^19. Mice were lightly anesthetized with 1% isoflurane and maintained on a heated platform. Two-dimensionally guided M-mode images from a parasternal long axis (PLAX) of the left ventricle (LV) were acquired at the tip of the papillary muscles. Wall thickness and chamber diameters were measured in both diastole and systole. Fractional shortening was calculated as (LVDd−LVDs)/LVDd×100, where LVDd is LV diameter in diastole and LVDs is LV diameter in systole. Ejection fraction was calculated as [(7.0/(2.4+LVDd)(LVDd)^3−(7.0/(2.4+LVDs)(LVDs)^3/(7.0/(2.4+LVDd)(LVDd)^3×100 and LV mass was calculated by using the formula [1.05×((Posterior Walldiastole+Anterior Walldiastole+LVDd)^3−(LVDd)^3)]. All parameters were measured over at least three consecutive cycles.
We injected dimethyl malonate (100 mg/kg, daily) in neonatal mice directly after birth for 2 weeks with an MI performed once the mice reached P7. We then analyzed the hearts following injury to determine whether malonate results in prolongation of the neonatal regenerative window (FIG. 10A).

[2] = system: adult mouse heart following myocardial infarction; test: Echocardiography after adult MI, malonate treatment starting 1-week post-MI; conditions: for % EF (Ejection Fraction) / % FS (Fractional Shortening) / LV Mass (Left Ventricular Mass, Anatomical Weight) / LV Vol; d (Left Ventricular Volume; diastole) / LV Vol; s (Left Ventricular Volume; systole) / LVAWD (Left Ventricle Anterior Wall Thickness Diastole) / LVAWS (Left Ventricle Anterior Wall Thickness Systole) / LVIDD (Left Ventricle Internal Diameter Diastole) / LVIDS (Left Ventricle Internal Diameter Systole) / LVPWD (Left Ventricle Posterior Wall Thickness Diastole) / LVPWS (Left Ventricle Posterior Wall Thickness Systole): adult mice, mean ± SE
Source text: (§4) Adult male mice (8-week-old) were subjected to MI by ligation of the proximal aspect of the LAD coronary artery. In brief, mice were anaesthetized using 3% isoflurane, then mice were intubated with PE50 tubing and placed on a mouse ventilator at 120-130 breaths per minute with a stroke volume of 150 microliters and maintained on 2% isoflurane. A left lateral incision through the fourth intercostal space was made to expose the heart. After visualizing the left coronary artery, 7-0 suture was placed through the myocardium in the anterolateral wall and secured as previously describer^17,18. Coronary artery entrapment was confirmed by observing blanching of the distal circulation (ventricular apex). ECG was used to confirm MI by noting ST segment changes. The lungs were over inflated, and the ribs and muscle layers were closed by absorbable sutures. The skin is closed by additional suturing using 6-0 nylon. The mouse was recovered from the anesthesia and extubated.
Saline was used as a vehicle control for all experiments. […] Adult mice were injected intraperitoneally daily with either saline or 100 mg/kg dimethyl malonate post-MI for 2 or 4 weeks.
as §3
To determine whether SDH inhibitors can promote a regenerative response following the establishment of infarction, we performed MI in 8-week-old mice and started malonate treatment at 1-week post-MI (FIG. 20A). […] Mice were then randomized and treated with saline or malonate for a period of 4 weeks, and hearts were harvested at 6 weeks post-MI (FIG. 20A).

[3] = system: adult mouse heart following myocardial infarction; test: Trichrome staining after adult MI, malonate treatment starting 1-week post-MI; conditions: malonate for 4 weeks starting 1-week post-MI, 6 weeks post-MI
Source text: as §4
Saline was used as a vehicle control for all experiments. […]
Hearts were harvested and fixed in 4% paraformaldehyde (PFA) in PBS solution overnight at 4° C., processed for paraffin embedding, and sectioned in intervals. […] Scar size measurements were quantified from at least 3 sections of the heart from ligature to apex. ImageJ was used to quantify the fibrotic scar, and the average scar area for each heart was plotted. […]

[4] = system: cardiomyocytes; test: Immunostaining (pH3, Aurora B), WGA and trichrome staining after MI in P7 mice; conditions: MI at P7, dimethyl malonate 100 mg/kg daily for 2 weeks from birth, 21 days post-MI
Source text: We then analyzed the hearts following injury to determine whether malonate results in prolongation of the neonatal regenerative window (FIG. 5A). To examine whether malonate stimulates cardiomyocyte proliferation, we performed MI in 7-day-old mice and analyzed their hearts at 7 days post-MI by immunostaining for markers of proliferation.
as §1, §2
Hearts were harvested and fixed in 4% paraformaldehyde (PFA) in PBS solution overnight at 4° C., processed for paraffin embedding, and sectioned in intervals. Masson's trichrome staining was performed according to the manufacture's protocol (Newcomer Supply, Middleton, WI). Scar size measurements were quantified from at least 3 sections of the heart from ligature to apex. ImageJ was used to quantify the fibrotic scar, and the average scar area for each heart was plotted.
We injected dimethyl malonate (100 mg/kg, daily) in neonatal mice directly after birth for 2 weeks with an MI performed once the mice reached P7.

[5] = MI, 2 WPMI, dimethyl malonate 100 mg/kg daily for 4 weeks starting 1 WPMI
[6] = MI, 3 WPMI, dimethyl malonate 100 mg/kg daily for 4 weeks starting 1 WPMI
[7] = MI, 4 WPMI, dimethyl malonate 100 mg/kg daily for 4 weeks starting 1 WPMI
[8] = MI, 6 WPMI, dimethyl malonate 100 mg/kg daily for 4 weeks starting 1 WPMI
[9] = malonate group, MI, 1 WPMI (before start of dosing)
[10] = malonate group, Pre (before MI and dosing)

COC(=O)CC(=O)OC [Malonate, dimethyl malonate]
LVAWD (Left Ventricle Anterior Wall Thickness Diastole) [1]: 0.650 ± 0.025 mm | LVAWS (Left Ventricle Anterior Wall Thickness Systole) [1]: 0.820 ± 0.033 mm | LVIDD (Left Ventricle Internal Diameter Diastole) [1]: 3.240 ± 0.185 mm | LVIDS (Left Ventricle Internal Diameter Systole) [1]: 2.058 ± 0.204 mm | LVPWD (Left Ventricle Posterior Wall Thickness Diastole) [1]: 0.643 ± 0.026 mm | LVPWS (Left Ventricle Posterior Wall Thickness Systole) [1]: 0.818 ± 0.032 mm | cardiac function by echocardiography ([2]; adult MI, malonate for 4 weeks starting 1-week post-MI, 4-weeks and 6-weeks post-MI): significant increase in cardiac function | % EF (Ejection Fraction) [2, 5]: 34.537 ± 4.592% | % FS (Fractional Shortening) [2, 5]: 16.507 ± 2.337% | LV Mass (Left Ventricular Mass, Anatomical Weight) [2, 5]: 118.559 ± 20.724 mg | LV Vol; d (Left Ventricular Volume; diastole) [2, 5]: 97.776 ± 23.854 µL | LV Vol; s (Left Ventricular Volume; systole) [2, 5]: 69.099 ± 20.899 µL | LVAWD (Left Ventricle Anterior Wall Thickness Diastole) [2, 5]: 0.698 ± 0.021 mm | LVAWS (Left Ventricle Anterior Wall Thickness Systole) [2, 5]: 0.833 ± 0.016 mm | LVIDD (Left Ventricle Internal Diameter Diastole) [2, 5]: 4.458 ± 0.467 mm | LVIDS (Left Ventricle Internal Diameter Systole) [2, 5]: 3.772 ± 0.497 mm | LVPWD (Left Ventricle Posterior Wall Thickness Diastole) [2, 5]: 0.671 ± 0.023 mm | LVPWS (Left Ventricle Posterior Wall Thickness Systole) [2, 5]: 0.814 ± 0.012 mm | % EF (Ejection Fraction) [2, 6]: 38.518 ± 3.865% | % FS (Fractional Shortening) [2, 6]: 18.642 ± 2.058% | LV Mass (Left Ventricular Mass, Anatomical Weight) [2, 6]: 90.090 ± 11.827 mg | LV Vol; d (Left Ventricular Volume; diastole) [2, 6]: 78.984 ± 13.627 µL | LV Vol; s (Left Ventricular Volume; systole) [2, 6]: 50.781 ± 11.724 µL | LVAWD (Left Ventricle Anterior Wall Thickness Diastole) [2, 6]: 0.623 ± 0.024 mm | LVAWS (Left Ventricle Anterior Wall Thickness Systole) [2, 6]: 0.791 ± 0.028 mm | LVIDD (Left Ventricle Internal Diameter Diastole) [2, 6]: 4.139 ± 0.296 mm | LVIDS (Left Ventricle Internal Diameter Systole) [2, 6]: 3.393 ± 0.326 mm | LVPWD (Left Ventricle Posterior Wall Thickness Diastole) [2, 6]: 0.613 ± 0.017 mm | LVPWS (Left Ventricle Posterior Wall Thickness Systole) [2, 6]: 0.764 ± 0.018 mm | % EF (Ejection Fraction) [2, 7]: 45.375 ± 5.597% | % FS (Fractional Shortening) [2, 7]: 24.529 ± 3.624% | LV Mass (Left Ventricular Mass, Anatomical Weight) [2, 7]: 90.726 ± 13.717 mg | LV Vol; d (Left Ventricular Volume; diastole) [2, 7]: 70.697 ± 15.089 µL | LV Vol; s (Left Ventricular Volume; systole) [2, 7]: 47.342 ± 10.954 µL | LVAWD (Left Ventricle Anterior Wall Thickness Diastole) [2, 7]: 0.687 ± 0.039 mm | LVAWS (Left Ventricle Anterior Wall Thickness Systole) [2, 7]: 0.809 ± 0.051 mm | LVIDD (Left Ventricle Internal Diameter Diastole) [2, 7]: 4.136 ± 0.349 mm | LVIDS (Left Ventricle Internal Diameter Systole) [2, 7]: 2.958 ± 0.419 mm | LVPWD (Left Ventricle Posterior Wall Thickness Diastole) [2, 7]: 0.962 ± 0.287 mm | LVPWS (Left Ventricle Posterior Wall Thickness Systole) [2, 7]: 1.015 ± 0.214 mm | % EF (Ejection Fraction) [2, 8]: 47.208 ± 4.087% | % FS (Fractional Shortening) [2, 8]: 23.535 ± 2.509% | LV Mass (Left Ventricular Mass, Anatomical Weight) [2, 8]: 107.845 ± 11.076 mg | LV Vol; d (Left Ventricular Volume; diastole) [2, 8]: 75.865 ± 9.652 µL | LV Vol; s (Left Ventricular Volume; systole) [2, 8]: 40.253 ± 6.696 µL | LVAWD (Left Ventricle Anterior Wall Thickness Diastole) [2, 8]: 0.718 ± 0.011 mm | LVAWS (Left Ventricle Anterior Wall Thickness Systole) [2, 8]: 0.831 ± 0.019 mm | LVIDD (Left Ventricle Internal Diameter Diastole) [2, 8]: 4.113 ± 0.228 mm | LVIDS (Left Ventricle Internal Diameter Systole) [2, 8]: 3.146 ± 0.214 mm | LVPWD (Left Ventricle Posterior Wall Thickness Diastole) [2, 8]: 0.738 ± 0.018 mm | LVPWS (Left Ventricle Posterior Wall Thickness Systole) [2, 8]: 0.846 ± 0.017 mm | % EF (Ejection Fraction) [2, 9]: 35.760 ± 3.523% | % FS (Fractional Shortening) [2, 9]: 17.077 ± 1.873% | LV Mass (Left Ventricular Mass, Anatomical Weight) [2, 9]: 105.118 ± 13.726 mg | LV Vol; d (Left Ventricular Volume; diastole) [2, 9]: 87.566 ± 16.492 µL | LV Vol; s (Left Ventricular Volume; systole) [2, 9]: 57.371 ± 11.845 µL | LVAWD (Left Ventricle Anterior Wall Thickness Diastole) [2, 9]: 0.651 ± 0.018 mm | LVAWS (Left Ventricle Anterior Wall Thickness Systole) [2, 9]: 0.788 ± 0.016 mm | LVIDD (Left Ventricle Internal Diameter Diastole) [2, 9]: 4.329 ± 0.343 mm | LVIDS (Left Ventricle Internal Diameter Systole) [2, 9]: 3.603 ± 0.326 mm | LVPWD (Left Ventricle Posterior Wall Thickness Diastole) [2, 9]: 0.665 ± 0.033 mm | LVPWS (Left Ventricle Posterior Wall Thickness Systole) [2, 9]: 0.838 ± 0.025 mm | % EF (Ejection Fraction) [2, 10]: 69.832 ± 3.238% | % FS (Fractional Shortening) [2, 10]: 38.447 ± 2.452% | LV Mass (Left Ventricular Mass, Anatomical Weight) [2, 10]: 59.124 ± 6.101 mg | LV Vol; d (Left Ventricular Volume; diastole) [2, 10]: 32.452 ± 4.967 µL | LV Vol; s (Left Ventricular Volume; systole) [2, 10]: 10.208 ± 2.260 µL | LVAWD (Left Ventricle Anterior Wall Thickness Diastole) [2, 10]: 0.704 ± 0.023 mm | LVAWS (Left Ventricle Anterior Wall Thickness Systole) [2, 10]: 0.838 ± 0.024 mm | LVIDD (Left Ventricle Internal Diameter Diastole) [2, 10]: 2.872 ± 0.174 mm | LVIDS (Left Ventricle Internal Diameter Systole) [2, 10]: 1.779 ± 0.158 mm | LVPWD (Left Ventricle Posterior Wall Thickness Diastole) [2, 10]: 0.717 ± 0.020 mm | LVPWS (Left Ventricle Posterior Wall Thickness Systole) [2, 10]: 0.829 ± 0.017 mm | scar size (fibrosis quantification) [3]: significant reduction in scar size | cardiomyocyte cell size (wheat germ agglutinin staining) [4]: significant reduction in cardiomyocyte cell size | structural regeneration and fibrosis (trichrome staining) ([4]; vs saline controls): complete heart regeneration
